This note sets out measurements from EPA's ToxValDB 9.5 (doi:10.2903/j.efsa.2008.169r).

Molecules are shown by their SMILES. Converted amounts (≈) assume the structure as drawn.

In data set [1] the test system is Aphidius rhopalosiphi. Briefly: LR50; higher = less toxic. The note with it: not reported; mortality.
The subject of data set [2] is Rattus norvegicus.
Data set [3] concerns Coturnix coturnix. Conditions: mortality; for LD50: acute, oral.
Data set [4] concerns Apis mellifera. Conditions: acute; duration: 48 hours; dermal; mortality.
Data set [5] relates to Oncorhynchus mykiss.
Data set [6] concerns Tagia sp. Conditions: acute; duration: 14 days; mortality.
For data set [7], the system named is Daphnia magna. Conditions: chronic/long-term, reproduction.
Data set [8] has as its system Canidae. Conditions: subchronic; duration: 90 days; oral; Dog Other; organ weight.

In the case of `COCCN(C(=O)CCl)c1c(C)cccc1C` [Dimethachlor], in data set [1], the LR50 worked out at 91 g/ha. Further, the LD50 in data set [2] (acute, oral, mortality) is 1600 mg/kg-day; in data set [3] (diet) it was above 1470 mg/kg-day; in data set [3], 524 mg/kg-day; in data set [4], above 200 µg/piece. The NOAEL amounted to 11.1 mg/kg-day in data set [2] (chronic, duration: 2 years, body weight); 50 mg/kg-day in data set [2] (developmental, development); 10 mg/kg-day in data set [8]. The NOEL in data set [2] (chronic, mortality) was 20 mg/kg-day; in data set [3] (reproduction developmental, duration: 140 days), 102 mg/kg-day. The LC50 in data set [5] (acute, duration: 96 hours, mortality) was 3.9 mg/L (≈ 15.2 µM); in data set [6], above 70 mg/kg. The NOEC in data set [5] (chronic/long-term, duration: 21 days, growth) was 0.85 mg/L; in data set [7] (duration: 21 days), 0.476 mg/L; in data set [7] (duration: 22 days), 2.3 mg/L.
